Molecular target: Human immunodeficiency virus type 1 protease (Human immunodeficiency virus 1, UniProt Q72874)
Experiment: Inhibitory activity was determined against HIV type 1 protease

CC(C)[C@H](NC(=O)[C@H](SCc1ccccc1)[C@H](O)[C@H](Cc1ccccc1)NC(=O)OC(C)(C)C)C(=O)NCc1ccccc1
Ki: 26.9 nM

CC(C)[C@H](NC(=O)[C@H](NCc1ccccc1)[C@H](O)[C@H](Cc1ccccc1)NC(=O)[C@@H](NC(=O)COc1ccccc1)C(C)(C)C)C(=O)NCc1ccccc1
Ki: 15.8 nM

CC(C)(C)[C@H](NC(=O)OCc1ccccc1)C(=O)N[C@@H](Cc1ccccc1)[C@@H](O)[C@@H](NCc1ccc(OCCN2CCOCC2)cc1)C(=O)N[C@H](CO)c1ccccc1 (stereo in doubt; 283268)
Ki: 100 nM

COc1ccc(CN[C@@H](C(=O)N[C@H](C(=O)NCc2nc3ccccc3[nH]2)C(C)C)[C@H](O)[C@H](Cc2ccccc2)NC(=O)[C@@H](NC(=O)CCc2ccc(P(=O)(O)O)cc2)C(C)(C)C)cc1
Ki: 7.76 nM

COc1ccc(CN[C@@H](C(=O)NCCNCc2nc3ccccc3[nH]2)[C@H](O)[C@H](Cc2ccccc2)NC(=O)[C@@H](NC(=O)OCc2ccccc2)C(C)C)cc1
Ki: 1290 nM

COC(=O)[C@@H](NC(=O)[C@H](NCc1ccccc1)[C@H](O)[C@H](Cc1ccccc1)NC(=O)[C@@H](NC(=O)OCc1ccccc1)C(C)C)C(C)C
Ki: 1100 nM

COc1ccc(CN[C@@H](C(=O)N[C@H](C(=O)NCCn2ccnc2)C(C)C)[C@H](O)[C@H](Cc2ccccc2)NC(=O)[C@@H](NC(=O)OCc2ccccc2)C(C)C)cc1
Ki: 28.8 nM

COc1ccc(CN[C@@H](C(=O)N[C@H](C(=O)NCc2nc3ccccc3[nH]2)C(C)C)[C@H](O)[C@H](Cc2ccccc2)NC(=O)[C@@H](NC(=O)OC(C)(C)C)C(C)C)cc1
Ki: 20.9 nM

COC(=O)CC[C@H](NC(=O)[C@H](NCc1ccc(OC)cc1)[C@H](O)[C@H](Cc1ccccc1)NC(=O)[C@@H](NC(=O)OCc1ccccc1)C(C)C)C(=O)NCc1nc2ccccc2[nH]1
Ki: 11 nM

CC(C)[C@H](NC(=O)[C@H](NCc1ccccc1)[C@H](O)[C@H](Cc1ccccc1)NC(=O)[C@@H](NC(=O)CC1NC(=O)NC1=O)C(C)(C)C)C(=O)NCc1ccccc1 (stereo partly drawn)
Ki: 11 nM

CC[C@H](C)[C@H](NC(=O)[C@H](NCc1ccccc1)[C@H](O)[C@H](Cc1ccccc1)NC(=O)[C@@H](NC(=O)OCc1ccccc1)C(C)C)C(=O)NCc1ccccc1
Ki: 43.7 nM

COc1ccc(CN[C@@H](C(=O)N[C@H](C(=O)NCc2nc3ccccc3[nH]2)c2ccccc2)[C@H](O)[C@@H](N)Cc2ccccc2)cc1
Ki: 89.1 nM

COc1ccc(C[C@H](NC(=O)OC(C)(C)C)[C@@H](O)[C@@H](NCc2ccc(Cl)cc2)C(=O)N[C@H](C(=O)NCc2nc3ccccc3[nH]2)C(C)C)cc1
Ki: 8.91 nM

CC(C)[C@H](NC(=O)[C@H](NCc1ccccc1)[C@H](O)[C@H](Cc1ccccc1)NC(=O)[C@H](O)C(C)C)C(=O)NCc1ccccc1
Ki: 794 nM

COc1ccc(CN[C@@H](C(=O)N[C@H](C(=O)NCc2nc3ccccc3[nH]2)C(C)C)[C@H](O)[C@H](Cc2ccccc2)NC(=O)[C@@H](NC(=O)[C@@H](O)Cc2ccccc2)C(C)(C)C)cc1
Ki: 6.03 nM

CC(C)[C@H](NC(=O)OCc1ccccc1)C(=O)N[C@@H](Cc1ccccc1)[C@@H](O)[C@@H](NC1CCC(O)CC1)C(=O)N[C@H](C(=O)NCc1ccccc1)C(C)C (stereo in doubt; c)
Ki: 1410 nM

COc1ccc(CN[C@@H](C(=O)N[C@H](C(=O)NCc2nc3cc[nH]cc-3n2)C(C)C)[C@H](O)[C@H](Cc2ccccc2)NC(=O)[C@@H](NC(=O)OCc2ccccc2)C(C)C)cc1
Ki: 4.17 nM

COc1ccc(CN[C@@H](C(=O)N[C@H](C(=O)Nc2ccc3ncsc3c2)C(C)C)[C@H](O)[C@H](Cc2ccccc2)NC(=O)[C@@H](NC(=O)OCc2ccccc2)C(C)C)cc1
Ki: 15.8 nM

CC(C)(C)OC(=O)N[C@@H](Cc1ccccc1)[C@@H](O)[C@@H](NCc1ccc(OCCO)cc1)C(=O)N[C@H]1c2ccccc2CC1O (stereo partly drawn)
Ki: 79.4 nM

COc1ccc(CN[C@@H](C(=O)N[C@H]2c3ccccc3CC2O)[C@H](O)[C@H](Cc2ccccc2)NC(=O)[C@@H](NC(=O)OCc2ccccc2)C(C)(C)C)cc1 (stereo partly drawn)
Ki: 1820 nM

CC(C)(C)[C@H](NC(=O)OCc1ccccc1)C(=O)N[C@@H](Cc1ccccc1)[C@@H](O)[C@@H](NCc1ccccc1)C(=O)N[C@H]1c2ccccc2CC1O (stereo partly drawn)
Ki: 14.5 nM

COc1ccc(CN[C@@H](C(=O)N[C@H](C(=O)NCc2nc3ccccc3[nH]2)C(C)C)[C@H](O)[C@H](Cc2ccccc2)NC(=O)[C@H](NC(=O)OCc2nc3cc[nH]cc-3n2)C(C)(C)C)cc1
Ki: 447 nM

CCOc1ccc(CN[C@@H](C(=O)N[C@H](C(=O)NCc2nc3ccccc3[nH]2)C(C)C)[C@H](O)[C@H](Cc2ccccc2)NC(=O)[C@@H](NC(=O)OCc2ccccc2)C(C)C)cc1
Ki: 24 nM

CC(C)[C@H](NC(=O)OCc1ccccc1)C(=O)N[C@@H](Cc1ccccc1)[C@@H](O)[C@@H](NCCc1cc2ccccc2[nH]1)C(=O)N[C@H](C(=O)NCc1ccccc1)C(C)C
Ki: 61.7 nM

CC(C)[C@H](NC(=O)OCc1ccccc1)C(=O)N[C@@H](Cc1ccccc1)[C@@H](O)[C@@H](NCc1cccnc1)C(=O)N[C@H](C(=O)NCc1ccccc1)C(C)C
Ki: 7.08 nM

CC(=O)NCc1ccc(CN[C@@H](C(=O)N[C@H]2c3ccccc3CC2O)[C@H](O)[C@H](Cc2ccccc2)NC(=O)[C@@H](NC(=O)OCc2ccccc2)C(C)(C)C)cc1 (stereo partly drawn)
Ki: 5.75 nM

CC(C)[C@H](NC(=O)OCCCCCN)C(=O)N[C@@H](Cc1ccccc1)[C@@H](O)[C@@H](NCc1ccccc1)C(=O)N[C@H](C(=O)NCc1ccccc1)C(C)C
Ki: 33.1 nM

CC(C)[C@H](NC(=O)OCc1ccccc1)C(=O)N[C@@H](Cc1ccccc1)[C@@H](O)[C@@H](NC1CCC(O)CC1)C(=O)N[C@H](C(=O)NCc1ccccc1)C(C)C (stereo in doubt; 282808)
Ki: 1700 nM

CC(C)C[C@H](NC(=O)[C@H](NCc1ccccc1)[C@H](O)[C@H](Cc1ccccc1)NC(=O)[C@@H](NC(=O)OCc1ccccc1)C(C)C)C(=O)NCc1ccccc1
Ki: 11 nM

CC(C)(C)[C@H](NC(=O)OCc1ccccc1)C(=O)N[C@@H](Cc1ccccc1)[C@@H](O)[C@@H](NCc1ccc(CNC(=O)CCc2nc3ccccc3[nH]2)cc1)C(=O)NCc1ccccc1
Ki: 53.7 nM

CC(C)(C)OC(=O)N[C@@H](Cc1ccccc1)[C@@H](O)[C@@H](NCc1ccc(OCCO)cc1)C(=O)NCc1ccccc1
Ki: 1200 nM

COc1ccc(CN[C@@H](C(=O)N[C@H](C(=O)NCc2nc3ccccc3[nH]2)C(C)C)[C@H](O)[C@H](Cc2ccccc2)NC(=O)[C@@H](NC(=O)OCc2nc3cc[nH]cc-3n2)C(C)(C)C)cc1
Ki: 19.1 nM

COc1ccc(CN[C@@H](C(=O)N[C@H](C(=O)N[C@H](CO)c2ccccc2)C(C)C)[C@H](O)[C@H](Cc2ccccc2)NC(=O)[C@@H](NC(=O)OCc2ccccc2)C(C)C)cc1
Ki: 14.1 nM

COC(=O)CC[C@H](NC(=O)[C@H](NCc1ccc(OC)cc1)[C@H](O)[C@H](Cc1ccccc1)NC(=O)[C@@H](NC(=O)OCc1ccccc1)C(C)C)C(=O)NCc1ccc(OC)cc1O
Ki: 6.03 nM

COc1ccc(CN[C@@H](C(=O)NC2c3ccccc3C[C@H]2O)[C@H](O)[C@H](Cc2ccccc2)NC(=O)[C@@H](NC(=O)C(O)Cc2ccccc2)C(C)(C)C)cc1 (stereo partly drawn)
Ki: 14.1 nM

COc1ccc(CN[C@@H](C(=O)N[C@H](C(=O)N(C)Cc2nc3ccccc3[nH]2)C(C)C)[C@H](O)[C@H](Cc2ccccc2)NC(=O)OC(C)(C)C)cc1
Ki: 12 nM

CCCCCCCCOC(=O)N[C@H](C(=O)N[C@@H](Cc1ccccc1)[C@@H](O)[C@@H](NCc1ccccc1)C(=O)N[C@H](C(=O)NCc1ccccc1)C(C)C)C(C)(C)C
Ki: 14.1 nM

COc1ccc(CN[C@@H](C(=O)N[C@H](C(=O)NCc2nc3ccccc3[nH]2)C(C)C)[C@H](O)[C@H](Cc2ccccc2)NC(=O)OC(C)(C)C)cc1
Ki: 7.76 nM

COc1ccc(CN[C@@H](C(=O)N[C@H](C(=O)NCc2nc3ccccc3[nH]2)C(C)C)[C@H](O)[C@H](Cc2ccccc2)NC(=O)[C@@H](NC(=O)CCc2ccc(O)c(I)c2)C(C)(C)C)cc1
Ki: 4.27 nM

CC(C)[C@H](NC(=O)OCc1ccccc1)C(=O)N[C@@H](Cc1ccccc1)[C@@H](O)[C@@H](NCc1ccccc1)C(=O)N[C@H](C(=O)OCc1nc2cc(Cl)c(Cl)cc2[nH]1)C(C)C
Ki: 22.9 nM

COc1cccc(CN[C@@H](C(=O)N[C@H](C(=O)NCc2ccccc2)C(C)C)[C@H](O)[C@H](Cc2ccccc2)NC(=O)[C@@H](NC(=O)OCc2ccccc2)C(C)C)c1
Ki: 9.55 nM

CC(C)(C)[C@H](NC(=O)OCc1ccccc1)C(=O)N[C@@H](Cc1ccccc1)[C@@H](O)[C@@H](NCc1ccc(CNC(=O)CCc2nc3ccccc3[nH]2)cc1)C(=O)N[C@H]1c2ccccc2CC1O (stereo partly drawn)
Ki: 4.07 nM

CC(C)[C@H](NC(=O)OCc1ccccc1)C(=O)N[C@@H](Cc1ccccc1)[C@@H](O)[C@@H](NCc1ccccc1)C(=O)N[C@H](C(=O)NCc1ccc(Br)cc1)C(C)C
Ki: 15.1 nM

COc1ccc(CN[C@@H](C(=O)N[C@H](C(=O)NCc2nc3ccccc3[nH]2)C(C)C)[C@H](O)[C@H](Cc2ccccc2)NC(=O)[C@@H](N)C(C)(C)C)cc1
Ki: 7.76 nM

COc1ccc(CN[C@@H](C(=O)NCc2nc3ccccc3[nH]2)[C@H](O)[C@H](Cc2ccccc2)NC(=O)OC(C)(C)C)cc1
Ki: 2290 nM

COc1ccc(CN[C@@H](C(=O)N[C@H]2c3ccccc3CC2O)[C@H](O)[C@H](Cc2ccccc2)NC(=O)[C@@H](NC(=O)c2cn3cccnc3n2)C(C)(C)C)cc1 (stereo partly drawn)
Ki: 22.9 nM

CCOc1ccc(CN[C@@H](C(=O)NCc2ccccc2)[C@H](O)[C@H](Cc2ccccc2)NC(=O)[C@@H](NC(=O)OCc2ccccc2)C(C)(C)C)cc1
Ki: 37.2 nM

COc1ccc(CN[C@@H](C(=O)N[C@H](C(=O)NCCN(C)C)C(C)C)[C@H](O)[C@H](Cc2ccccc2)NC(=O)[C@@H](NC(=O)OCc2ccccc2)C(C)C)cc1
Ki: 25.7 nM

CC(C)(C)OC(=O)N[C@@H](Cc1ccccc1)[C@@H](O)[C@@H](NCc1ccccc1)C(=O)NCc1ccccc1
Ki: 2510 nM

COc1ccc(CN[C@@H](C(=O)NCC(O)c2ccccc2)[C@H](O)[C@H](Cc2ccccc2)NC(=O)[C@@H](NC(=O)OCc2ccccc2)C(C)C)cc1 (stereo partly drawn)
Ki: 2510 nM

CC(=O)NCc1ccc(CN[C@@H](C(=O)N[C@H]2c3ccccc3CC2O)[C@H](O)[C@H](Cc2ccccc2)NC(=O)OC(C)(C)C)cc1 (stereo partly drawn)
Ki: 70.8 nM

CC(C)[C@H](NC(=O)[C@H](NCc1ccc(Br)cc1)[C@H](O)[C@H](Cc1ccccc1)NC(=O)[C@@H](NC(=O)c1ccc2ccccc2n1)C(C)(C)C)C(=O)NCc1nc2ccccc2[nH]1
Ki: 5.62 nM

COc1ccc(CN[C@@H](C(=O)N[C@H](C(=O)NCn2nnc3ccccc32)C(C)C)[C@H](O)[C@H](Cc2ccccc2)NC(=O)[C@@H](NC(=O)OCc2ccccc2)C(C)C)cc1
Ki: 15.1 nM
